Test: stability of crystals of the hydrochloride salt
Assay type: physicochemical
Description: Dimethylamine (approximately 10 ml) was condensed at -80° C. in a pressure tube and to this was added a solution of N-(4-azidobut-2-ynyl)-2-(R)-(1-(R)-(3,5-bis(trifluoromethyl) phenyl)ethoxy)-3-(S)-(4-fluorophenyl)morpholine (3.2 g) in dioxan (15 ml). The tube was sealed and the solution was heated at 90° C. for 16 h. The solution was evaporated to dryness and the residue chromatographed on silica gel (eluting with 5% methanol in dichloromethane containing 0.25% ammonia (SG. 0.88)) and the fractions containing the desired product were evaporated in vacuo to give the title compound. To a solution of this residue in diethyl ether was added 1M-HCl in methanol. The solution was evaporated to dryness and redissolved in diethyl ether to give crystals of the title compound hydrochloride salt m.p. 194°-198° C., [α]^22D +65.0° (C=0.5, H2 O).

stability of crystals (at 40° C.): stable for at least five days
stability of crystals (at 40° C./75% relative humidity): stable for at least five days
stability of crystals (at 80° C.): stable for at least five days
stability of crystals (at 2000LUX): stable for at least five days
Compound: C[C@@H](O[C@H]1OCCN(Cc2nn[nH]c2CN(C)C)[C@H]1c1ccc(F)cc1)c1cc(C(F)(F)F)cc(C(F)(F)F)c1 [Example 12]

From patent US5612337A, “Substituted morpholine derivatives and their use as therapeutic agents” (Merck Sharp & Dohme Limited, priority 1993, dated 1997)
